This is an account of results in ChEMBL document CHEMBL2375285, “Novel (coumarin-3-yl)carbamates as selective MAO-B inhibitors: synthesis, in vitro and in vivo assays, theoretical evaluation of ADME properties and docking study” (Eur J Med Chem, 2013).

Activity calls are given as the source filed them. The calls are words filed in the database; no cut-off is given here.

For data set [1], the system named is Mus musculus. In words: Potentiation of L-dopa/carbidopa activity in reserpine-treated CD1 mouse assessed as increase in straightening at 100 mg/kg, ip administered 22 hrs post reserpine challenge followed by L-dopa/carbidopa adminstration at 30 mins measured after 1 hr relative to control. The class given is functional, organism-based. Also on record: dose 100 mg/kg.

Data set [2] relates to Mus musculus. Briefly: Potentiation of L-dopa/carbidopa activity in reserpine-treated CD1 mouse assessed as increase in movement at 100 mg/kg, ip administered 22 hrs post reserpine challenge followed by L-dopa/carbidopa adminstration at 30 mins measured after 1 hr relative to control. The class given is functional, organism-based. Also on record: dose 100 mg/kg.
Data set [3] deals with Mus musculus. Briefly: Potentiation of L-dopa/carbidopa activity in reserpine-treated CD1 mouse assessed as increase in velocity at 100 mg/kg, ip administered 22 hrs post reserpine challenge followed by L-dopa/carbidopa adminstration at 30 mins measured after 1 hr relative to control. It counts as functional, organism-based. More on the design: dose 100 mg/kg.
The subject of data set [4] is Mus musculus. Briefly: Potentiation of L-dopa/carbidopa activity in reserpine-treated CD1 mouse assessed as increase in motor activity at 100 mg/kg, ip administered 22 hrs post reserpine challenge followed by L-dopa/carbidopa adminstration at 30 mins measured after 1 hr relative to control. The class given is functional, organism-based. More on the design: dose 100 mg/kg.

Data set [5] deals with Mus musculus. Briefly: Potentiation of L-dopa/carbidopa activity in reserpine-treated CD1 mouse assessed as increase in movement at 10 mg/kg, ip administered 22 hrs post reserpine challenge followed by L-dopa/carbidopa adminstration at 30 mins measured after 1 hr relative to control. The class given is functional, organism-based. More on the design: dose 10 mg/kg.
Data set [6] relates to Mus musculus. In words: Potentiation of L-dopa/carbidopa activity in reserpine-treated CD1 mouse assessed as increase in motor activity at 10 mg/kg, ip administered 22 hrs post reserpine challenge followed by L-dopa/carbidopa adminstration at 30 mins measured after 1 hr relative to control. The class given is functional, organism-based. More on the design: dose 10 mg/kg.
Data set [7] has as its system Mus musculus. In words: Neurotoxicity in CD1 mouse assessed as decrease in motor activity at 10 mg/kg, ip measured for 1 hr relative to control. It counts as toxicity, organism-based. More on the design: dose 10 mg/kg, route intraperitoneal. The following applies: in vivo.
Data set [8] relates to Mus musculus. In words: Neurotoxicity in CD1 mouse assessed as decrease in velocity at 10 mg/kg, ip measured for 1 hr relative to control. Also on record: dose 10 mg/kg, route intraperitoneal. The class given is toxicity, organism-based. Conditions: in vivo.
For data set [9], the system named is Mus musculus. Briefly: Neurotoxicity in CD1 mouse assessed as decrease in movement at 10 mg/kg, ip measured for 1 hr relative to control. It counts as toxicity, organism-based. More on the design: dose 10 mg/kg, route intraperitoneal. The following applies: in vivo.
The subject of data set [10] is Mus musculus. Briefly: Neurotoxicity in CD1 mouse assessed as decrease in straightening at 10 mg/kg, ip measured for 1 hr relative to control. The class given is toxicity, organism-based. Also on record: dose 10 mg/kg, route intraperitoneal. The following applies: in vivo.
Data set [11] deals with Mus musculus. Briefly: Toxicity in reserpine-treated CD1 mouse assessed as mortality at 100 mg/kg, ip measured for 24 to 48 hrs. It counts as organism-based. Also on record: dose 100 mg/kg, route intraperitoneal. Conditions: in vivo.
Data set [12] relates to Mus musculus. Briefly: Potentiation of L-dopa/carbidopa activity in reserpine-treated CD1 mouse assessed as increase in straightening at 10 mg/kg, ip administered 22 hrs post reserpine challenge followed by L-dopa/carbidopa adminstration at 30 mins measured after 1 hr relative to control. The class given is functional, organism-based. Also on record: dose 10 mg/kg.
Data set [13] relates to Mus musculus. In words: Potentiation of L-dopa/carbidopa activity in reserpine-treated CD1 mouse assessed as increase in velocity at 10 mg/kg, ip administered 22 hrs post reserpine challenge followed by L-dopa/carbidopa adminstration at 30 mins measured after 1 hr relative to control. It counts as functional, organism-based. More on the design: dose 10 mg/kg.

With `O=C(Nc1cc2ccccc2oc1=O)OCc1ccccc1`, the result with Mus musculus [1], with Mus musculus [2], in the data set with Mus musculus [3], with Mus musculus [4], with Mus musculus [5] and with Mus musculus [6] was Active. In addition, the Activity result in the data set with Mus musculus [7], in the data set on Mus musculus [8], in the data set with Mus musculus [9], in the data set with Mus musculus [10] and in the data set on Mus musculus [11] was “Non-toxic” in each case.

Turning to `C#CCN(C)[C@H](C)Cc1ccccc1` [SELEGILINE], the result in the data set on Mus musculus [12], in the data set with Mus musculus [5], with Mus musculus [13] and with Mus musculus [6] was Active. The Activity result in the data set on Mus musculus [7], with Mus musculus [8], in the data set with Mus musculus [9] and in the data set on Mus musculus [10] was “Toxic” throughout.
